Where “and” joins values, the source holds several entries; their conditions need not be identical. Equal entries are not always repeated. Inconclusive results and toxic doses are left out.
System: L1210 leukemia ip in BDF1 mice, survival T/C
Test: NCI In Vivo Anticancer Drug Screen. Data for tumor model L1210 Leukemia (intraperitoneal) in B6D2F1 (BDF1) mice
Conditions: endpoint: mean survival time, higher = longer survival
Summary of the method: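 Tumor was transplanted into mice, which were then dosed with test compound or vehicle alone. Survival was recorded for each group, and the treated figure was expressed relative to the control figure.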

[1] = dose: 100.0 mg/kg/injection, schedule: Q01DX009 (ip), vehicle: saline
[2] = dose: 200.0 mg/kg/injection, schedule: Q01DX009 (ip), vehicle: saline
[3] = dose: 100.0 mg/kg/injection, schedule: Q01DX001 (ip), vehicle: saline
[4] = dose: 100.0 mg/kg/injection, schedule: Q04DX003 (ip), vehicle: saline
[5] = dose: 200.0 mg/kg/injection, schedule: Q01DX001 (ip), vehicle: saline
[6] = dose: 200.0 mg/kg/injection, schedule: Q04DX003 (ip), vehicle: saline
[7] = dose: 400.0 mg/kg/injection, schedule: Q01DX001 (ip), vehicle: saline
[8] = dose: 100.0 mg/kg/injection, schedule: Q01DX009 (ip), vehicle: Klucel (hydroxypropylcellulose) (HPC)
[9] = dose: 200.0 mg/kg/injection, schedule: Q01DX009 (ip), vehicle: Klucel (hydroxypropylcellulose) (HPC)
[10] = dose: 400.0 mg/kg/injection, schedule: Q01DX009 (ip), vehicle: Klucel (hydroxypropylcellulose) (HPC)
[11] = dose: 100.0 mg/kg/injection, schedule: Q04DX003 (ip), vehicle: Klucel (hydroxypropylcellulose) (HPC)
[12] = dose: 200.0 mg/kg/injection, schedule: Q04DX003 (ip), vehicle: Klucel (hydroxypropylcellulose) (HPC)
[13] = dose: 400.0 mg/kg/injection, schedule: Q04DX003 (ip), vehicle: Klucel (hydroxypropylcellulose) (HPC)
[14] = dose: 75.0 mg/kg/injection, schedule: Q01DX001 (ip), vehicle: carboxymethylcellulose (CMC)
[15] = dose: 150.0 mg/kg/injection, schedule: Q01DX001 (ip), vehicle: carboxymethylcellulose (CMC)
[16] = dose: 100.0 mg/kg/injection, schedule: Q04DX003 (ip), vehicle: saline with Tween-80
[17] = dose: 200.0 mg/kg/injection, schedule: Q04DX003 (ip), vehicle: saline with Tween-80
[18] = dose: 400.0 mg/kg/injection, schedule: Q04DX003 (ip), vehicle: saline with Tween-80

CCCOC(=O)c1ccc(NCC(C)(C)[N+](=O)[O-])cc1
T/C [1]: 95 % of control | T/C [2]: 117 % of control | T/C (dose: 400.0 mg/kg/injection, schedule: Q01DX009 (ip), vehicle: saline): 91 % of control

Cc1nc(N)nc(N)c1-c1ccccc1
T/C (dose: 100.0 mg/kg/injection, schedule: Q01DX001 (ip), vehicle: carboxymethylcellulose (CMC)): 100 % of control | T/C (dose: 200.0 mg/kg/injection, schedule: Q01DX001 (ip), vehicle: carboxymethylcellulose (CMC)): 94 % of control | T/C (dose: 400.0 mg/kg/injection, schedule: Q01DX001 (ip), vehicle: carboxymethylcellulose (CMC)): 92 % of control

[Cl][Tl]
T/C [3]: 94 % of control | T/C [4]: 106 % of control | T/C [5]: 101 % of control | T/C [6]: 90 % of control | T/C [7]: 94 % of control

O=C1C=Cc2c(ccc3c4c(ccc23)=CC(=O)C=C4)=C1
T/C (dose: 100.0 mg/kg/injection, schedule: Q01DX001 (ip), vehicle: saline with Tween-80): 88 % of control | T/C (dose: 200.0 mg/kg/injection, schedule: Q01DX001 (ip), vehicle: saline with Tween-80): 90 % of control | T/C (dose: 400.0 mg/kg/injection, schedule: Q01DX001 (ip), vehicle: saline with Tween-80): 90 % of control

CCOC(=O)/C(C#N)=C(\C)CCc1ccccc1
T/C (dose: 75.0 mg/kg/injection, schedule: Q01DX001 (ip), vehicle: saline): 104 % of control | T/C (dose: 150.0 mg/kg/injection, schedule: Q01DX001 (ip), vehicle: saline): 101 % of control | T/C (dose: 300.0 mg/kg/injection, schedule: Q01DX001 (ip), vehicle: saline): 101 % of control

O=C(Nc1ccc(C2=NCCN2)cc1)c1ccc(C(=O)Nc2ccc(C3=NCCN3)cc2)nc1
T/C (dose: 1.0 mg/kg/injection, schedule: Q01DX Z (ip), vehicle: saline): 108 % of control | T/C (dose: 2.0 mg/kg/injection, schedule: Q01DX Z (ip), vehicle: saline): 119 % of control | T/C (dose: 15.0 mg/kg/injection, schedule: Q01DX Z (ip), vehicle: carboxymethylcellulose (CMC)): 228 % of control | T/C (dose: 16.0 mg/kg/injection, schedule: Q01DX Z (ip), vehicle: saline): 221 % of control | T/C (dose: 30.0 mg/kg/injection, schedule: Q01DX Z (oral), vehicle: saline): 104 % of control | T/C (dose: 60.0 mg/kg/injection, schedule: Q01DX Z (ip), vehicle: carboxymethylcellulose (CMC)): 117 % of control | T/C (dose: 60.0 mg/kg/injection, schedule: Q01DX Z (oral), vehicle: saline): 98 % of control | T/C (dose: 120.0 mg/kg/injection, schedule: Q01DX Z (oral), vehicle: saline): 106 % of control | T/C (dose: 240.0 mg/kg/injection, schedule: Q01DX Z (oral), vehicle: saline): 97 % of control | T/C (dose: 480.0 mg/kg/injection, schedule: Q01DX Z (oral), vehicle: saline): 98 % of control | T/C (dose: 960.0 mg/kg/injection, schedule: Q01DX Z (oral), vehicle: saline): 97 % of control

C1C2CC3CC1CC(C2)C31CO1 (centres undefined)
T/C (dose: 100.0 mg/kg/injection, schedule: Q04DX002 (ip), vehicle: Klucel (hydroxypropylcellulose) (HPC)): 90 % of control | T/C (dose: 200.0 mg/kg/injection, schedule: Q04DX002 (ip), vehicle: Klucel (hydroxypropylcellulose) (HPC)): 90 % of control | T/C (dose: 400.0 mg/kg/injection, schedule: Q04DX002 (ip), vehicle: Klucel (hydroxypropylcellulose) (HPC)): 105 % of control

CN1c2ccccc2C=C(C(=O)c2ccccc2)C1c1ccccc1 (centres undefined)
T/C (dose: 50.0 mg/kg/injection, schedule: Q01DX001 (ip), vehicle: saline): 100 % of control | T/C [3]: 102 % of control | T/C [5]: 97 % of control

CC1CCCN(C(=O)Nc2cccc(Cl)c2Cl)C1 (centres undefined)
T/C [8]: 87 % of control | T/C [9]: 92 % of control | T/C [10]: 96 % of control

CC(C)c1ccc(C(=O)C2CC2)cc1
T/C (dose: 25.0 mg/kg/injection, schedule: Q01DX009 (ip), vehicle: Klucel (hydroxypropylcellulose) (HPC)): 93 % of control | T/C (dose: 50.0 mg/kg/injection, schedule: Q01DX009 (ip), vehicle: Klucel (hydroxypropylcellulose) (HPC)): 101 % of control | T/C [8]: 93 % of control and 91 % of control | T/C [11]: 96 % of control | T/C [12]: 96 % of control | T/C [13]: 94 % of control

N#CSCc1ccccc1
T/C [14]: 118 % of control | T/C [11]: 91 % of control | T/C [15]: 98 % of control | T/C [12]: 103 % of control | T/C [13]: 94 % of control

CC(C)(C)NCCCC(=O)O
T/C [16]: 110 % of control | T/C [17]: 100 % of control | T/C [18]: 92 % of control

O=C(CCl)c1c(O)[n+](Cc2ccccc2)c2ccccn12
T/C (dose: 25.0 mg/kg/injection, schedule: Q04DX003 (ip), vehicle: saline): 100 % of control | T/C (dose: 50.0 mg/kg/injection, schedule: Q04DX003 (ip), vehicle: saline): 96 % of control | T/C [3]: 91 % of control | T/C [4]: 91 % of control | T/C (dose: 150.0 mg/kg/injection, schedule: Q04DX003 (ip), vehicle: saline): 97 % of control | T/C [5]: 94 % of control | T/C (dose: 225.0 mg/kg/injection, schedule: Q04DX003 (ip), vehicle: saline): 103 % of control | T/C (dose: 335.0 mg/kg/injection, schedule: Q04DX003 (ip), vehicle: saline): 106 % of control

Cc1cccc(CN(CC(=O)O)S(C)(=O)=O)c1
T/C (dose: 100.0 mg/kg/injection, schedule: Q01DX009 (ip), vehicle: other): 102 % of control | T/C (dose: 100.0 mg/kg/injection, schedule: Q04DX003 (ip), vehicle: other): 100 % of control | T/C (dose: 200.0 mg/kg/injection, schedule: Q01DX009 (ip), vehicle: other): 100 % of control | T/C (dose: 200.0 mg/kg/injection, schedule: Q04DX003 (ip), vehicle: other): 98 % of control | T/C (dose: 400.0 mg/kg/injection, schedule: Q01DX009 (ip), vehicle: other): 100 % of control | T/C (dose: 400.0 mg/kg/injection, schedule: Q04DX003 (ip), vehicle: other): 93 % of control

CC(=O)Nc1cccc(OC(=O)Nc2ccccc2F)c1
T/C [8]: 91 % of control | T/C [9]: 101 % of control | T/C [10]: 112 % of control

O=C1Cc2ccccc21
T/C (dose: 100.0 mg/kg/injection, schedule: Q01DX009 (ip), vehicle: saline with Tween-80): 97 % of control | T/C [16]: 95 % of control | T/C (dose: 200.0 mg/kg/injection, schedule: Q01DX009 (ip), vehicle: saline with Tween-80): 97 % of control | T/C [17]: 94 % of control | T/C (dose: 400.0 mg/kg/injection, schedule: Q01DX009 (ip), vehicle: saline with Tween-80): 96 % of control | T/C [18]: 98 % of control

NC(=O)NCCO
T/C [3]: 98 % of control | T/C [5]: 106 % of control | T/C [7]: 98 % of control

O=C(CC(O)(C(F)(F)F)C(F)(F)F)c1cccnc1
T/C [8]: 98 % of control | T/C [16]: 101 % of control | T/C [9]: 104 % of control | T/C [17]: 103 % of control | T/C [10]: 101 % of control | T/C [18]: 103 % of control

[NH-]C(CCC(N)=O)C(=O)O.[NH-]C(CCC(N)=O)C(=O)O.[Pd+2] (centres undefined)
T/C (dose: 100.0 mg/kg/injection, schedule: Q04DX002 (ip), vehicle: saline): 102 % of control | T/C [4]: 98 % of control | T/C (dose: 200.0 mg/kg/injection, schedule: Q04DX002 (ip), vehicle: saline): 102 % of control | T/C [6]: 92 % of control | T/C (dose: 400.0 mg/kg/injection, schedule: Q04DX002 (ip), vehicle: saline): 102 % of control

O=[N+]([O-])c1cc(C(F)(F)F)cc([N+](=O)[O-])c1Cl
T/C (dose: 12.5 mg/kg/injection, schedule: Q01DX001 (ip), vehicle: Klucel (hydroxypropylcellulose) (HPC)): 91 % of control | T/C (dose: 25.0 mg/kg/injection, schedule: Q01DX001 (ip), vehicle: Klucel (hydroxypropylcellulose) (HPC)): 91 % of control

CN(C)CCN(Cc1ccccc1)c1ccccn1
T/C [14]: 100 % of control | T/C [15]: 95 % of control

CC(=O)c1cccc(OCC(O)CN(C(C)C)C(C)C)c1 (centres undefined)
T/C [1]: 98 % of control | T/C [2]: 98 % of control
